Measured values reported in ChEMBL document CHEMBL5365534, “Discovery of a Novel Ketohexokinase Inhibitor with Improved Drug Distribution in Target Tissue for the Treatment of Fructose Metabolic Disease” (J Med Chem, 2023).

Assays:
[1] = Cmax in Sprague-Dawley rat at 10 mg/kg, po administered as single dose measured upto 24 hrs by LC-MS/MS analysis; assay type: ADME, organism-based; design: time < 24 hrs, dose 10 mg/kg, route po; details: in vivo
[2] = AUC (0 to infinity) in Sprague-Dawley rat at 10 mg/kg, iv administered as single dose measured upto 24 hrs by LC-MS/MS analysis; assay type: ADME, organism-based; design: dose 10 mg/kg, time < 24 hrs, route iv; details: in vivo
[3] = Volume of distribution at steady state in Sprague-Dawley rat at 10 mg/kg, iv administered as single dose measured upto 24 hrs by LC-MS/MS analysis; assay type: ADME, organism-based; details: in vivo, read-out: Vdss
[4] = Elimination half life in Beagle dog at 5 mg/kg, po administered as single dose measured upto 24 hrs by LC-MS/MS analysis; assay type: ADME, organism-based, Canis lupus familiaris; details: in vivo, read-out: beta t1/2 (converted)
[5] = MRT (0 to t) in Beagle dog at 5 mg/kg, po administered as single dose measured upto 24 hrs by LC-MS/MS analysis; assay type: ADME, organism-based, Canis lupus familiaris; details: in vivo
[6] = Oral bioavailability in Beagle dog at 5 mg/kg administered as single dose measured upto 24 hrs by LC-MS/MS analysis; assay type: ADME, organism-based, Canis lupus familiaris; details: in vivo
[7] = AUC (0 to t) in Beagle dog at 1 mg/kg, iv administered as single dose measured upto 24 hrs by LC-MS/MS analysis; assay type: ADME, organism-based, Canis lupus familiaris; design: dose 1 mg/kg, time < 24 hrs, route iv; details: in vivo
[8] = AUC (0 to infinity) in Beagle dog at 1 mg/kg, iv administered as single dose measured upto 24 hrs by LC-MS/MS analysis; assay type: ADME, organism-based, Canis lupus familiaris; design: time < 24 hrs, dose 1 mg/kg, route iv; details: in vivo
[9] = Volume of distribution at steady state in Beagle dog at 1 mg/kg, iv administered as single dose measured upto 24 hrs by LC-MS/MS analysis; assay type: ADME, organism-based, Canis lupus familiaris; details: in vivo, read-out: Vdss
[10] = Metabolic stability in mouse hepatocyte assessed as parent compound remaining at 10 uM measured after 4 hrs by LC-MS/MS analysis; assay type: ADME, cell-based; details: hepatocytes, read-out: Stability
[11] = Metabolic stability in monkey hepatocyte assessed as parent compound remaining at 10 uM measured after 4 hrs by LC-MS/MS analysis; assay type: ADME, cell-based, Macaca mulatta; details: rhesus monkey, hepatocytes, read-out: Stability
[12] = Metabolic stability in human hepatocyte assessed as parent compound remaining at 10 uM measured after 4 hrs by LC-MS/MS analysis; assay type: ADME, cell-based; details: hepatocytes, read-out: Stability
[13] = Drug metabolism in mouse hepatocytes assessed as glycine conjugation metabolite at 10 uM measured upto 240 mins by LC-MS/MS analysis; assay type: ADME, cell-based, Hepatocyte; details: 4 h
[14] = Drug metabolism in dog hepatocytes assessed as glucuronidation metabolite at 10 uM measured upto 240 mins by LC-MS/MS analysis; assay type: ADME, cell-based, Canis lupus familiaris, Hepatocyte; details: 4 h
[15] = Drug metabolism in monkey hepatocytes assessed as oxidation/hydrogenation/decarboxylation metabolite at 10 uM measured upto 240 mins by LC-MS/MS analysis; assay type: ADME, cell-based, Macaca mulatta, Hepatocyte; details: rhesus monkey, 4 h
Cytochrome P450 3A4 = Cytochrome P450 3A4 (Homo sapiens, UniProt P08684); test: Time dependent inhibition of CYP3A4 in human liver microsomes at 10 uM preincubated for 30 mins followed by substrate addition and measured after 15 mins in presence of NADPH by LC-MS/MS analysis; assay type: ADME, Microsome
Cytochrome P450 1A2 [16] = target: T1, Cytochrome P450 1A2 (Homo sapiens, UniProt P05177); test: Time dependent inhibition of CYP1A2 in human liver microsomes at 10 uM preincubated for 30 mins followed by substrate addition and measured after 15 mins in presence of NADPH by LC-MS/MS analysis; assay type: ADME, Microsome
T1 sequence (P05177 whole entry): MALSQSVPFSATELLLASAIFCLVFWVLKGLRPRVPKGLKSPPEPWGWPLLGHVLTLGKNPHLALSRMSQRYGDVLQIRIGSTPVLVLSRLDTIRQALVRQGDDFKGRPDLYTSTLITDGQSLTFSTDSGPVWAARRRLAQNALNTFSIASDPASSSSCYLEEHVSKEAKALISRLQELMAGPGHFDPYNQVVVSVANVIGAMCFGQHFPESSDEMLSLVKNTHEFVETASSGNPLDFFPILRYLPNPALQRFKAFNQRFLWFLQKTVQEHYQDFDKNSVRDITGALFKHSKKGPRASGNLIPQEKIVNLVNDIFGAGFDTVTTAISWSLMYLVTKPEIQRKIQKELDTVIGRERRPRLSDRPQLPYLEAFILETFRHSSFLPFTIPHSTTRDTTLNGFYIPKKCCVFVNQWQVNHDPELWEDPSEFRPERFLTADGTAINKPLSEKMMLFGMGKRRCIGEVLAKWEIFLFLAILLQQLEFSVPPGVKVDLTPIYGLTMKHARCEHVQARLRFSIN

Cytochrome P450 2C19 [17] = target: T2, Cytochrome P450 2C19 (Homo sapiens, UniProt P33261); test: Time dependent inhibition of CYP2C19 in human liver microsomes at 10 uM preincubated for 30 mins followed by substrate addition and measured after 15 mins in presence of NADPH by LC-MS/MS analysis; assay type: ADME, Microsome
Cytochrome P450 2D6 [18] = target: T3, Cytochrome P450 2D6 (Homo sapiens, UniProt P10635); test: Time dependent inhibition of CYP2D6 in human liver microsomes at 10 uM preincubated for 30 mins followed by substrate addition and measured after 15 mins in presence of NADPH by LC-MS/MS analysis; assay type: ADME, Microsome
Cytochrome P450 1A2 [19] = target: T1, Cytochrome P450 1A2
Description: Inhibition of CYP1A2 in human liver microsomes at 0.1 to 30 uM measured for 5 mins in presence of NADPH by LC-MS/MS analysis

Cytochrome P450 2C19 [20] = target: T2, Cytochrome P450 2C19
Description: Inhibition of CYP2C19 in human liver microsomes at 0.1 to 30 uM measured for 5 mins in presence of NADPH by LC-MS/MS analysis

Cytochrome P450 2D6 [21] = target: T3, Cytochrome P450 2D6
Description: Inhibition of CYP2D6 in human liver microsomes at 0.1 to 30 uM measured for 5 mins in presence of NADPH by LC-MS/MS analysis

in vivo [22] = details: Sprague-Dawley, rat, spleen, po, 10 mg/kg
Description: Drug concentration in Sprague-Dawley rat spleen at 10 mg/kg, po administered as single dose measured upto 24 hrs by LC-MS/MS analysis

in vivo [23] = details: Sprague-Dawley, rat, kidney/plasma, po, 10 mg/kg
Description: Ratio of drug concentration in Sprague-Dawley rat kidney to plasma at 10 mg/kg, po administered as single dose measured upto 24 hrs by LC-MS/MS analysis

in vitro [24] = details: human, Caco-2
Description: Efflux ratio of apparent permeability across basolateral to apical membrane over apical to basolateral membrane in human Caco-2 cells

in vitro [25] = details: dog, liver microsomes
in vitro [26] = details: rhesus monkey, liver microsomes
in vitro [27] = details: human, liver microsomes
in vitro [28] = details: mouse, hepatocytes
in vitro [29] = details: rat, hepatocytes
in vitro [30] = details: dog, hepatocytes
in vitro [31] = details: human, hepatocytes
in vitro [32] = details: rat, plasma
Description: Fraction unbound in rat plasma

in vitro [33] = details: human, plasma
Description: Fraction unbound in human plasma

T3 sequence (P10635 whole entry): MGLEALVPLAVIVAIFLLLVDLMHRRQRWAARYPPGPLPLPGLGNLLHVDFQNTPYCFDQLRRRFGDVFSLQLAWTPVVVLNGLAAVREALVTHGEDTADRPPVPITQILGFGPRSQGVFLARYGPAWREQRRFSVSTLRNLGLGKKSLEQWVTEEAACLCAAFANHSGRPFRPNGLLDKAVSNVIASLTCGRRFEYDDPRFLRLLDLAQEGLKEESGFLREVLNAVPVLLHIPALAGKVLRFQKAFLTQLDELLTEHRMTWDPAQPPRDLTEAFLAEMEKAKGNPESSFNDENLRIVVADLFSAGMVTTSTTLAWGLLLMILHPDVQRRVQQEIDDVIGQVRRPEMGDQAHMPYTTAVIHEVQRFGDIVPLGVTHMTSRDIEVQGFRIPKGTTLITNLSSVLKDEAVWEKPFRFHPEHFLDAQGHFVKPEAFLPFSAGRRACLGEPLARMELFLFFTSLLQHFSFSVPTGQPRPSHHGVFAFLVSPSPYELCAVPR
T2 sequence (P33261 whole entry): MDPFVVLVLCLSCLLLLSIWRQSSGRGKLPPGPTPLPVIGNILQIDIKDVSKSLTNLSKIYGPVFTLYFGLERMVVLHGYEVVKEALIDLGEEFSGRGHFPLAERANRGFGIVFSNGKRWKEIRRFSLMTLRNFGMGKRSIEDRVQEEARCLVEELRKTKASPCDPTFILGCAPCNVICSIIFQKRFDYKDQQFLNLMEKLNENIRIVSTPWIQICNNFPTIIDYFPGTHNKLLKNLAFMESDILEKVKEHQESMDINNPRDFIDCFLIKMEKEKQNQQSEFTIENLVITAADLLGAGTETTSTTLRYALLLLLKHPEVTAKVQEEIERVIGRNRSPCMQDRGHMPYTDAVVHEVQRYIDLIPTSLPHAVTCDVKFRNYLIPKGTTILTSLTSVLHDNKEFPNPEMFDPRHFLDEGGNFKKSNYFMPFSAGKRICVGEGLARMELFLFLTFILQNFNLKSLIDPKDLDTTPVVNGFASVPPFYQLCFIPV
Sequence of Cytochrome P450 3A4 (P08684 whole entry): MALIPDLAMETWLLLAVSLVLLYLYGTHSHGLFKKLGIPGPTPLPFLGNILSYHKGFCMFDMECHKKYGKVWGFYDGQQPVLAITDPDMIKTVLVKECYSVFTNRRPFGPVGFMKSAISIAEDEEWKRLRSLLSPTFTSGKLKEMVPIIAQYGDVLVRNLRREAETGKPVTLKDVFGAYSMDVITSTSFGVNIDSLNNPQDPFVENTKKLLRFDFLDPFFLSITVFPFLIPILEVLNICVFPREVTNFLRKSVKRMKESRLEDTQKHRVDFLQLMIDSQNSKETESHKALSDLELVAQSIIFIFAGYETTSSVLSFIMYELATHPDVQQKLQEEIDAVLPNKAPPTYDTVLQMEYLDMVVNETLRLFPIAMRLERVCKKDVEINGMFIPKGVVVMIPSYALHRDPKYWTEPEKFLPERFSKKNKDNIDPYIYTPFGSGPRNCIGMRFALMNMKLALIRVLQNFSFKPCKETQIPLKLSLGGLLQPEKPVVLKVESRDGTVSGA

In the case of `C[C@H]1CCN1c1nc(N2CC[C@H](CCC(=O)O)C2)c2c(n1)C(F)(F)CC2`, the Cmax [1] is reported as 4900 ng/mL, the AUC [2] is reported as 76200 ng·h/mL and the Vd [3] is reported as 0.89 L/kg. The half-life [4] was 5.21 h, the MRT last at 24 h [5] was 4.15 h and the bioavailability [6] was 122%. It also gave an AUCt [7] of 5440 ng·h/mL, an AUC [8] of 5580 ng·h/mL and a Vd [9] of 0.87 L/kg. For the same compound, the remaining at 4 h, 10 µM [10] was 96.6%, the remaining at 4 h, 10 µM [11] was 95.8% and the remaining at 4 h, 10 µM [12] was 98.5%. The Drug metabolism [13] was “Metabolite_Notdetected”, the Drug metabolism [14] was “Metabolite_Notdetected” and the Drug metabolism [15] was “Metabolite_Notdetected”. For the same compound, the IC50 (Cytochrome P450 3A4) was over 10 µM, the IC50 (Cytochrome P450 1A2 [16]) was over 10 µM and the IC50 (Cytochrome P450 2C19 [17]) was over 10 µM. For the same compound, the IC50 (Cytochrome P450 2D6 [18]) was over 10 µM, the IC50 (Cytochrome P450 1A2 [19]) was over 30 µM and the IC50 (Cytochrome P450 2C19 [20]) was over 30 µM. For the same compound, the IC50 (Cytochrome P450 2D6 [21]) was over 30 µM, the concentration at 24 h (in vivo [22]) was 1140 ng/g and the Kp at 24 h (in vivo [23]) was 2.2. It also gave an efflux ratio (in vitro [24]) of 7.45, a microsomal CLint at 2 h, 1 µM (in vitro [25]) of under 6.4 µL/min/mg and a microsomal CLint at 2 h, 1 µM (in vitro [26]) of 10.2 µL/min/mg. It also gave a microsomal CLint at 2 h, 1 µM (in vitro [27]) of 6.4 µL/min/mg, a hepatocyte CLint at 2 h, 1 µM (in vitro [28]) of under 0.96 µL/min/1e6 cells and a hepatocyte CLint at 2 h, 1 µM (in vitro [29]) of under 0.96 µL/min/1e6 cells. It also gave a hepatocyte CLint at 2 h, 1 µM (in vitro [30]) of under 0.96 µL/min/1e6 cells, a hepatocyte CLint at 2 h, 1 µM (in vitro [31]) of under 0.96 µL/min/1e6 cells and a fraction unbound (in vitro [32]) of 0.025. For the same compound, the fraction unbound (in vitro [33]) was 0.089.
